{
  "source": "patent US20080058421A1",
  "about": "“COMPOSITIONS FOR CLEANING AND DISINFECTING NASAL TRACT AND SINUS CAVITY” (priority 2006, published 2008)",
  "assay_type_in_all_cases": "cell-based",
  "key": {"[1]": {"tested_on": "Staphylococcus aureus ATCC 6538", "assay": "A.O.A.C. sanitizer and germicidal detergent test", "text": "(§1) The bacterial cultures were purchased from the American Type Culture Collection (ATCC), (Bethesda, Md.). Escherichia coli and Staphylococcus aureus are used to represent both gram-negative and gram-positive bacterial classes. This test is used by the US EPA for to determine compliance for a product to be used as a sanitizing agent. A product that reduces population density of both types of bacteria in 30 seconds by 99.999% satisfies the requirement as a sanitizing agent."}, "[2]": {"tested_on": "Escherichia coli ATCC 11229", "assay": "A.O.A.C. sanitizer and germicidal detergent test", "text": "as §1"}, "[3]": {"tested_on": "P. a. 10145 (Pseudomonas aeruginosa)", "assay": "modified A.O.A.C. germicidal and detergent sanitizer test", "procedure": "(§2) The efficacy of the sanitizers in Examples 1, 2 and 3 was further evaluated with […] as controls against Salmonella typhimurium, Listeria monocytogenes, Aeromonas hydrophila, and Pseudomonas aeruginosa essentially by the modified detergent and germicidal sanitizer test of the A.O.A.C. The sanitizers were tested against both natural isolates and the antibiotic resistant strains of Listeria monocytogenes and Salmonella typhimurium. Each of the antibiotic resistant strains was used separately as well as in a composite strain prepared by mixing equal numbers of five different antibiotic resistant strains of Listeria monocytogenes or those of Salmonella typhimurium, respectively."}, "[4]": {"tested_on": "S. t. 7823 (Salmonella typhimurium)", "assay": "modified A.O.A.C. germicidal and detergent sanitizer test", "procedure": "as §2"}, "[5]": {"tested_on": "A. h. 7965 (Aeromonas hydrophila)", "assay": "modified A.O.A.C. germicidal and detergent sanitizer test", "procedure": "as §2"}, "[6]": {"tested_on": "L. m. 7644 (Listeria monocytogenes)", "assay": "modified A.O.A.C. germicidal and detergent sanitizer test", "procedure": "as §2"}, "[7]": {"settings": "sanitizer criterion is 99.999% reduction in 30 seconds"}},
  "data": [
    {"smiles": "OCl", "note": "[Hypochlorite]", "values": [
      {"measurement": "meets criterion of a sanitizer (99.999% reduction in 30 seconds)", "setting": "[1]; Fifty ppm hypochlorite", "value": "meets the criterion of a sanitizer"},
      {"measurement": "% Kill Staph. aureus", "setting": "[1]; [7]", "value": ">99.999", "unit": "%"},
      {"measurement": "meets criterion of a sanitizer (99.999% reduction in 30 seconds)", "setting": "[2]; Fifty ppm hypochlorite", "value": "meets the criterion of a sanitizer"},
      {"measurement": "% Kill E. coli", "setting": "[2]; [7]", "value": ">99.999", "unit": "%"},
      {"measurement": "% Kill", "setting": "[3]; 30 seconds contact", "value": ">99.999", "unit": "%"},
      {"measurement": "% Kill", "setting": "[3]; 60 seconds contact", "value": ">99.999", "unit": "%"},
      {"measurement": "% Kill", "setting": "[4]; 30 seconds contact", "value": "<99.999", "unit": "%"},
      {"measurement": "Number of surviving bacteria/ml after contact, cfu/ml", "setting": "[4]; 30 seconds contact, HOCL = 50 ppm, duplicate counts", "value": "T@, T@"},
      {"measurement": "% Kill", "setting": "[4]; 60 seconds contact", "value": ">99.999", "unit": "%"},
      {"measurement": "% Kill", "setting": "[5]; 30 seconds contact", "value": ">99.999", "unit": "%"},
      {"measurement": "% Kill", "setting": "[5]; 60 seconds contact", "value": ">99.999", "unit": "%"},
      {"measurement": "% Kill", "setting": "[6]; 30 seconds contact", "value": ">99.999", "unit": "%"},
      {"measurement": "% Kill", "setting": "[6]; 60 seconds contact", "value": ">99.999", "unit": "%"}
    ]}
  ]
}
